Patent publication US20150105252A1, “SUBSTITUTED PYRAZOLES AS HERBICIDES” (E I DU PONT DE NEMOURS AND COMPANY, priority 2013, published 2015)

What was measured:
oilseed rape = test: Test C postemergence; type: in vivo, Brassica napus; conditions: for Oilseed Rape plant response rating / Plant response rating, Oilseed Rape: postemergence; for Oilseed Rape plant response rating: 62 g ai/ha, scale 0 to 100
How it was run: (§1)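 In this greenhouse assay, seeded soil (loam plus sand) or emerged seedlings in peat-vermiculite medium were treated with formulated compound. Roughly two weeks later (13–15 days), each species was scored visually relative to controls, from 0 for no effect to 100 for complete control.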

pigweed = test: Test A preemergence; type: in vivo, Amaranthus retroflexus; conditions: preemergence; for Pigweed plant response rating (0 to 100 scale): visual injury approx. 10 days after treatment
How it was run: (§2)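 Greenhouse test in loam soil/sand blend; compounds formulated in non-phytotoxic solvent with surfactant, applied as preemergence directed soil spray or postemergence to plants 2–10 cm tall at one- to two-leaf stage. Injury rated visually versus untreated controls after approximately 10 days on a 0 (no effect) to 100 (complete control) scale.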

corn [1] = test: Test C preemergence; type: in vivo, Zea mays
How it was run: as §1

ducksalad = test: Test B flood; type: in vivo, Heteranthera limosa; conditions: 250 g ai/ha, visual rating on 0 to 100 scale (0 no effect, 100 complete control), 13 to 15 days
How it was run: (§3)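 2-leaf plants; pots flooded 3 cm over soil; compound added to paddy water, depth kept constant. Greenhouse 13–15 d. Visual rating vs controls, 0–100 scale (100 = complete control); dash = no result.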

corn [2] = test: Test A preemergence; type: in vivo, Zea mays; conditions: preemergence
How it was run: as §2

morningglory = test: Test C preemergence; type: in vivo, Ipomoea coccinea
How it was run: as §1

wheat = test: Test A postemergence; type: in vivo, Triticum aestivum
How it was run: as §2

foxtail, giant = test: Test A preemergence; type: in vivo, Setaria faberii; conditions: preemergence; for Foxtail, Giant plant response rating (0 to 100 scale): visual injury approx. 10 days after treatment
How it was run: as §2

sedge, umbrella = test: Test B flood; type: in vivo, Cyperus difformis; conditions: 250 g ai/ha, visual rating on 0 to 100 scale (0 no effect, 100 complete control), 13 to 15 days
How it was run: as §3

barnyardgrass [3] = test: Test C preemergence; type: in vivo, Echinochloa crus-galli; conditions: for Barnyardgrass plant response rating / Plant response rating, Barnyardgrass: preemergence; for Plant response rating, Barnyardgrass: 125 g ai/ha, scale 0 to 100, 0 = no effect, 100 = complete control
How it was run: as §1

galium [4] = test: Test C postemergence; type: in vivo, Galium aparine; conditions: for Plant response rating (scale of 0 to 100 where 0 is no effect and 100 is complete control), Galium: Postemergence, 31 g ai/ha, visually evaluated after 13 to 15 days; for Galium plant response rating / Plant response rating, Galium: postemergence; for Galium plant response rating: 62 g ai/ha, scale 0 to 100
How it was run: as §1

blackgrass = test: Test C postemergence; type: in vivo, Alopecurus myosuroides; conditions: for Plant response rating (scale of 0 to 100 where 0 is no effect and 100 is complete control), Blackgrass: Postemergence, 31 g ai/ha, visually evaluated after 13 to 15 days; for Blackgrass plant response rating / Plant response rating, Blackgrass: postemergence; for Blackgrass plant response rating: 62 g ai/ha, scale 0 to 100
How it was run: as §1

barnyardgrass [5] = test: Test A preemergence; type: in vivo, Echinochloa crus-galli; conditions: preemergence; for Barnyardgrass plant response rating (0 to 100 scale, 0 is no effect, 100 is complete control): visual injury approx. 10 days after treatment
How it was run: as §2

galium [6] = test: Test C preemergence; type: in vivo, Galium aparine
How it was run: as §1

[7] = 250 g ai/ha, scale 0 to 100 (0 no effect, 100 complete control)
[8] = 125 g ai/ha, scale 0 to 100, 0 no effect, 100 complete control
[9] = preemergence, 62 g ai/ha, scale 0 to 100 (0 no effect, 100 complete control), 13 to 15 days
[10] = preemergence, 125 g ai/ha, 13 to 15 days, scale 0 to 100, 0 = no effect, 100 = complete control
[11] = preemergence, 250 g ai/ha, scale 0 to 100, 0 is no effect, 100 is complete control
[12] = 500 g ai/ha, visual injury after approx. 10 days, 0 to 100 scale (0 no effect, 100 complete control)
[13] = Preemergence, rate head not shown (block before 16 g ai/ha), scale 0 to 100
[14] = Postemergence, 125 g ai/ha, 0 to 100 scale, 0 no effect, 100 complete control
[15] = Postemergence, 500 g ai/ha, 0 to 100 scale (0 no effect, 100 complete control)
[16] = 31 g ai/ha, visual rating, scale 0 to 100 (0 no effect, 100 complete control), 13 to 15 days
[17] = 62 g ai/ha, scale 0 to 100 (0 no effect, 100 complete control), 13 to 15 days
[18] = 250 g ai/ha, scale 0 to 100, 0 is no effect, 100 is complete control
[19] = 125 g ai/ha, visual injury, 0 to 100 scale, approx. 10 days
[20] = preemergence, 31 g ai/ha, visual rating, scale 0 to 100 (0 no effect, 100 complete control), 13 to 15 days

SMILES	Oilseed Rape plant response rating (oilseed rape)	Plant response rating, Oilseed Rape (oilseed rape; [7])	Plant response rating, Oilseed Rape (oilseed rape; [8])	Corn plant response rating (corn [1]; [9])	Plant response rating, Corn (corn [1]; [10])	Plant response rating, Ducksalad (ducksalad)	Morningglory plant response rating (morningglory; [9])	Plant response rating, Morningglory (morningglory; [10])	Wheat plant response rating (wheat; [15])	Foxtail, Giant plant response rating (foxtail, giant; [12])	Plant response rating, Sedge, Umbrella (sedge, umbrella)	Barnyardgrass plant response rating (barnyardgrass [3]; [17])	Plant response rating, Barnyardgrass (barnyardgrass [3]; 13 to 15 days)	Plant response rating (scale of 0 to 100 where 0 is no effect and 100 is complete control), Galium (galium [4])	Galium plant response rating (galium [4])	Plant response rating, Galium (galium [4]; [7])	Plant response rating, Galium (galium [4]; [8])	Plant response rating (scale of 0 to 100 where 0 is no effect and 100 is complete control), Blackgrass (blackgrass)	Blackgrass plant response rating (blackgrass)	Plant response rating, Blackgrass (blackgrass; [7])	also measured
CCc1cc(C(=O)NC2CC2)nn1Cc1ccnc(Br)c1 [Compound 220]	5	40	30	0	5	65	5	65	90	100	70	15	35	50	40	80	60	5	5	20	Pigweed plant response rating (0 to 100 scale) (pigweed; 125 g ai/ha): 100; Plant response rating, Corn (corn [1]; Preemergence, rate head not shown (block before 16 g ai/ha), scale 0 to 100, 100 is complete control): 0; Corn plant response rating (corn [1]; [11]): 40; Corn plant response rating (0 to 100 scale) (corn [2]; 125 g ai/ha, visual injury approx. 10 days after treatment): 0; Corn plant response rating (corn [2]; [12]): 90; Plant response rating, Morningglory (morningglory; [13]): 0; Morningglory plant response rating (morningglory; [11]): 75; Wheat plant response rating (wheat; [14]): 0; Foxtail, Giant plant response rating (0 to 100 scale) (foxtail, giant; 125 g ai/ha): 100; Barnyardgrass plant response rating (barnyardgrass [3]; [16]): 0; Barnyardgrass plant response rating (barnyardgrass [3]; [18]): 95; Plant response rating, Blackgrass (blackgrass; [8]): 5; Barnyardgrass plant response rating (0 to 100 scale, 0 is no effect, 100 is complete control) (barnyardgrass [5]; 125 g ai/ha): 80; Barnyardgrass plant response rating (barnyardgrass [5]; [12]): 100; Plant response rating, Galium (galium [6]; [13]): 5; Galium plant response rating (galium [6]; [9]): 80; Plant response rating, Galium (galium [6]; [10]): 80; Galium plant response rating (galium [6]; [11]): 98
CCCc1cc(C(=O)NCC(F)(F)F)nn1Cc1ccnc(OC(F)F)c1 [Compound 127]	70	85	80	25	65	95	55	100	90	100	85	60	95	70	70	80	70	20	15	40	Plant response rating (scale of 0 to 100 where 0 is no effect and 100 is complete control), Oilseed Rape (oilseed rape; Postemergence, 31 g ai/ha, visually evaluated after 13 to 15 days): 65; Pigweed plant response rating (pigweed; [19]): 90; Pigweed plant response rating (pigweed; [12]): 100; Plant response rating (scale of 0 to 100), Corn (corn [1]; Preemergence, 250 g ai/ha): 45; Corn plant response rating (corn [1]; [20]): 5; Plant response rating (scale of 0 to 100), Morningglory (morningglory; Preemergence, 250 g ai/ha): 100; Morningglory plant response rating (morningglory; [20]): 60; Wheat plant response rating (wheat; postemergence, 125 g ai/ha, about 10 days, visual rating on 0 to 100 scale (0 no effect, 100 complete control)): 80; Foxtail, Giant plant response rating (foxtail, giant; [19]): 90; Plant response rating (scale of 0 to 100), Barnyardgrass (barnyardgrass [3]; Preemergence, 250 g ai/ha): 95; Barnyardgrass plant response rating (barnyardgrass [3]; 31 g ai/ha, scale 0 to 100 (0 no effect, 100 complete control), 13 to 15 days): 45; Plant response rating, Blackgrass (blackgrass; [8]): 10; Barnyardgrass plant response rating (barnyardgrass [5]; [19]): 90; Barnyardgrass plant response rating (barnyardgrass [5]; [12]): 90; Plant response rating (scale of 0 to 100), Galium (galium [6]; Preemergence, 250 g ai/ha): 100; Galium plant response rating (galium [6]; [20]): 80; Galium plant response rating (galium [6]; [9]): 100; Plant response rating, Galium (galium [6]; [10]): 100
CCCc1cc(C(=O)NC2CC2)nn1Cc1ccnc(OC(F)F)c1 [Compound 205]	25	50	50	70	80	100	100	100	90	100	100	98	100	65	80	80	80	5	5	30	Pigweed plant response rating (0 to 100 scale) (pigweed; 125 g ai/ha): 100; Corn plant response rating (corn [1]; [20]): 70; Corn plant response rating (corn [1]; [11]): 98; Morningglory plant response rating (morningglory; [20]): 100; Morningglory plant response rating (morningglory; [11]): 100; Wheat plant response rating (wheat; [14]): 70; Foxtail, Giant plant response rating (0 to 100 scale) (foxtail, giant; 125 g ai/ha): 100; Barnyardgrass plant response rating (barnyardgrass [3]; [16]): 85; Barnyardgrass plant response rating (barnyardgrass [3]; [18]): 100; Plant response rating, Blackgrass (blackgrass; [8]): 5; Barnyardgrass plant response rating (0 to 100 scale, 0 is no effect, 100 is complete control) (barnyardgrass [5]; 125 g ai/ha): 90; Barnyardgrass plant response rating (barnyardgrass [5]; [12]): 100; Galium plant response rating (galium [6]; [20]): 100; Galium plant response rating (galium [6]; [9]): 90; Plant response rating, Galium (galium [6]; [10]): 95; Galium plant response rating (galium [6]; [11]): 100
